Columns and labels:
[1] = target: T1, CYP26A1 (Homo sapiens, UniProt O43174); test: Inhibition of CYP26A1-catalyzed tazarotenic acid sulfoxide formation; assay type: biochemical
T1 sequence (O43174 1-497): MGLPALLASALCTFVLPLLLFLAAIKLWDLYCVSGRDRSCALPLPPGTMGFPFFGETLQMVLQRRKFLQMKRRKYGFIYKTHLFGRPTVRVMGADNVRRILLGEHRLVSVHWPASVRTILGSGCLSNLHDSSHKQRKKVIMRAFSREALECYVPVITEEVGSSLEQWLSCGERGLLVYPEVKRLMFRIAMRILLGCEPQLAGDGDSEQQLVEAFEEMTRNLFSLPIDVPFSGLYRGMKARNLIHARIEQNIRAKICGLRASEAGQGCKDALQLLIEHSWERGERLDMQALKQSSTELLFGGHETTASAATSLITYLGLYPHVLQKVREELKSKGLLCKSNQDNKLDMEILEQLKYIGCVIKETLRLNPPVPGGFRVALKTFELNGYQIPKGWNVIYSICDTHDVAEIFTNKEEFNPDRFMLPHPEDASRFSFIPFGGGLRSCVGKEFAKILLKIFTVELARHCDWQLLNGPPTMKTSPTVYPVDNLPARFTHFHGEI

[2] = target: T2, CYP26B1 (Homo sapiens, UniProt Q9NR63); test: Inhibition of CYP26B1-catalyzed tazarotenic acid sulfoxide formation; assay type: biochemical
T2 sequence (Q9NR63 1-512): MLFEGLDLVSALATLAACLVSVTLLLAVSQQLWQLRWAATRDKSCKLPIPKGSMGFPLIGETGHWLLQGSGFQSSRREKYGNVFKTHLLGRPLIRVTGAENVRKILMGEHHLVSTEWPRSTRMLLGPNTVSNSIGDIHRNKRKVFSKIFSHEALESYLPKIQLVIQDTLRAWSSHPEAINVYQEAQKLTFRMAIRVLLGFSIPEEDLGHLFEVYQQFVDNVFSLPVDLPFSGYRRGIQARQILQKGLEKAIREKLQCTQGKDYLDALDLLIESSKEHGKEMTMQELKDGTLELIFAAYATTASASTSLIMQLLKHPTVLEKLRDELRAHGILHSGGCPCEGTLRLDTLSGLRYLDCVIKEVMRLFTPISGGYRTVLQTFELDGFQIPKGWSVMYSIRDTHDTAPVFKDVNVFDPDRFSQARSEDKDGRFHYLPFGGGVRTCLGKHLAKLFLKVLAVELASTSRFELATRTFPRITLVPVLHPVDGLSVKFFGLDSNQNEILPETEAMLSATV

[3] = target: T1, CYP26A1; test: Spectral binding determination, CYP26A1
[4] = target: T2, CYP26B1; test: Spectral binding determination, CYP26B1
[5] = target: T3, CYP2C8 (Homo sapiens, UniProt P10632); test: Spectral binding determination, CYP2C8; conditions: UV-difference spectra
T3 sequence (P10632 1-490): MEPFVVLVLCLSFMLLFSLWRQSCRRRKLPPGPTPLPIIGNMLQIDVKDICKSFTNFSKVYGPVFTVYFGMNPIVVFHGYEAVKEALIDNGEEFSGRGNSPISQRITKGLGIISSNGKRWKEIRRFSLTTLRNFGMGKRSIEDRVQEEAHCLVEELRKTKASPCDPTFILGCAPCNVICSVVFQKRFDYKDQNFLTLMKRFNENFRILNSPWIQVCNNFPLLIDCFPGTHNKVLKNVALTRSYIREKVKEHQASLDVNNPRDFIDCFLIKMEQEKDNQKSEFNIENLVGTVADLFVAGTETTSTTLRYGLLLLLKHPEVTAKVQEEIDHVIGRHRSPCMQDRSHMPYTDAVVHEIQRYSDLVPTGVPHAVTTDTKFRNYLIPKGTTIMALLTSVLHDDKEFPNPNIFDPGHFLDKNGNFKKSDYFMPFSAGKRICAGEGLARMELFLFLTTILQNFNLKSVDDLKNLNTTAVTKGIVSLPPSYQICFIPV

[6] = tested on: CYP2C8; test: In vitro free fraction by rapid equilibrium dialysis; assay type: in vitro ADME; conditions: human, pH 7.4, fu (IC50 assay), CYP2C8, conditions of CYP2C8 IC50 assay
[7] = human, in vivo
[8] = following topical administration; ref [64]–[73]; cited from earlier work
[9] = unbound fraction in plasma; ref [64]–[73]; cited from earlier work
[10] = tested on: CYP26A1; conditions: in vitro; ref [97]; cited from earlier work

Clc1ccccc1C(c1ccccc1)(c1ccccc1)n1ccnc1 [Clotrimazole]
IC50 ([1]; CYP26A1 IC50, probe tazarotenic acid): 24.7 ± 8.1 nM | IC50 ([1]; CYP26A1 IC50, tazarotenic acid, recombinant CYP26A1, probe tazarotenic acid sulfoxide formation, ± standard error): 20 ± 10 nM | IC50 ([1]; IC50,unb CYP26A1, IC50 corrected for unbound fraction in the assay): 16.3 nM | IC50 ([2]; CYP26B1 IC50, probe tazarotenic acid): 50.1 ± 12.1 nM | IC50 ([2]; CYP26B1 IC50, tazarotenic acid, recombinant CYP26B1, probe tazarotenic acid sulfoxide formation, ± standard error): 50 ± 10 nM | IC50 ([2]; IC50,unb CYP26B1, IC50 corrected for unbound fraction in the assay): 21.5 nM | Kd ([3]; Ks (spectral binding constant), CYP26A1, 500 nM protein, ± standard error): 533 ± 71.8 nM | Kd ([3]; Ks,unb CYP26A1, Ks corrected for nonspecific binding): 13.3 nM | Binding mechanism, CYP26A1 ([3]; UV-difference spectra): Type II | Kd ([4]; Ks (spectral binding constant), CYP26B1, 500 nM protein, ± standard error): 4950 ± 640 nM | Kd ([4]; Ks,unb CYP26B1, Ks corrected for nonspecific binding): 24.7 nM | Binding mechanism, CYP26B1 ([4]; UV-difference spectra): Type II | Binding mechanism, CYP2C8 [5]: Type II | fraction unbound at 12 h, 1 μM [6]: 0.155 ± 0.024 | Cmax,u (skin) [7]: 6.73 µM | Total skin concentration [8]: 67.3 µM | fu,plasma [9]: 0.100 | Inhibition of CYP26A1-catalyzed 4-hydroxyretinoic acid formation [10]: not be inhibitors

Reference: paper PMC6628712 (Journal of enzyme inhibition and medicinal chemistry, 2016)
